# Assay results published in patent US5061794A, “Cephalosporin derivatives, and antibacterial agents” (priority 1986, dated 1991).
# Where a name gives a salt, the structure may show the parent alone. Read-outs that look alike come from different tables or passages of the source.
# Tests used:
# [1] = system: E. coli CSH(RE45); assay: microbe, parasite or virus in culture; assay type: cell-based; settings: Escherichia coli, 16 h, read-out: Minimum Inhibitory Concentration (MIC), *E. coli CSH(RE45), lactamase-producing strain; 10^6 CFU/ml
# In short: (§1)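 Agar dilution: MH agar + graded drug conc.; inoculum 10^6 CFU/ml (overnight MH broth culture, one loopful); 37° C., 16 h; MIC, μg/ml.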
# [2] = system: E. coli CSH2 (RK1); assay: microbe, parasite or virus in culture; assay type: cell-based; settings: Escherichia coli, 16 h, read-out: Minimum Inhibitory Concentration (MIC), *E. coli CSH2 (RK1), lactamase-producing strain; 10^6 CFU/ml
# In short: as §1
# [3] = system: E. cloacae 963; assay: in vitro antibacterial activity, agar plate dilution method (MIC); assay type: cell-based; settings: Enterobacter cloacae, 963, 16 h, read-out: Minimum Inhibitory Concentration (MIC), E. cloacae 963; 10^6 CFU/ml
# In short: as §1
# [4] = system: E. cloacae Nek 39; assay: as above; assay type: cell-based; settings: Enterobacter cloacae, NEK39, 16 h, 10^6 CFU/ml
# In short: as §1
# [5] = system: E. coli GN5482; assay: as above; assay type: cell-based; settings: Escherichia coli
# In short: as §1
# [6] = system: E. coli NIHJ JC2; assay: as above; assay type: cell-based; settings: Escherichia coli, NIHJJC2, 16 h, read-out: Minimum Inhibitory Concentration (MIC), E. coli NIHJ JC2, 10^6 CFU/ml, 37° C.
# In short: as §1
# [7] = system: K. oxytoca GN10650; assay: as above; assay type: cell-based; settings: Klebsiella oxytoca, 10^6 CFU/ml
# In short: as §1
# [8] = system: K. pneumoniae No. 42; assay: as above; assay type: cell-based; settings: Klebsiella pneumoniae, NO.42, 16 h, read-out: Minimum Inhibitory Concentration (MIC), *K. pneumoniae No. 42, lactamase-producing strain; 10^6 CFU/ml
# In short: as §1
# [9] = system: K. pneumoniae PCI-602; assay: as above; assay type: cell-based; settings: Klebsiella pneumoniae, PCI602, 16 h, 10^6 CFU/ml
# In short: as §1
# [10] = system: M. morganii GN5407; assay: as above; assay type: cell-based; settings: Morganella morganii, GN5407, 16 h, read-out: Minimum Inhibitory Concentration (MIC), *M. morganii GN5407, lactamase-producing strain; 10^6 CFU/ml
# In short: as §1
# [11] = system: P. vulgaris HX-19; assay: as above; assay type: cell-based; settings: Proteus vulgaris, HX19, 16 h, P. vulgaris HX-19; 10^6 CFU/ml; read-out: Minimum Inhibitory Concentration (MIC)
# In short: as §1
# [12] = system: P. vulgaris No. 33; assay: as above; assay type: cell-based; settings: Proteus vulgaris, NO.33, 16 h, read-out: Minimum Inhibitory Concentration (MIC), *P. vulgaris No. 33, lactamase-producing strain; 10^6 CFU/ml
# In short: as §1
# [13] = system: S. aureus 209P NIHJ-JC1; assay: as above; assay type: cell-based; settings: Staphylococcus aureus, 16 h, read-out: Minimum Inhibitory Concentration (MIC)
# In short: as §1
# [14] = system: S. marcescens IAM 1184; assay: as above; assay type: cell-based; settings: Serratia marcescens, IAM1184, 16 h, read-out: Minimum Inhibitory Concentration (MIC)
# In short: as §1
# [15] = system: S. marcescens No. 16-2; assay: as above; assay type: cell-based; settings: Serratia marcescens, NO.162, 16 h, read-out: Minimum Inhibitory Concentration (MIC)
# In short: as §1
# [16] = system: Ps. aeruginosa AK 109; assay: as above; assay type: cell-based, Pseudomonas aeruginosa; settings: Pseudomonas aeruginosa, AK109, 16 h, read-out: Minimum Inhibitory Concentration (MIC)
# In short: as §1
# [17] = system: Ps. aeruginosa AKR17; assay: as above; assay type: cell-based, Pseudomonas aeruginosa; settings: Pseudomonas aeruginosa, 16 h; Ps. aeruginosa AKR17; 10^6 CFU/ml; read-out: Minimum Inhibitory Concentration (MIC)
# In short: as §1
# [18] = system: Ps. aeruginosa IF03445; assay: as above; assay type: cell-based, Pseudomonas aeruginosa; settings: Pseudomonas aeruginosa, 10^6 CFU/ml
# In short: as §1
# [19] = system: Ps. cepacia 23; assay: as above; assay type: cell-based, Pseudomonas cepacia; settings: Burkholderia cepacia, 23, 16 h, read-out: Minimum Inhibitory Concentration (MIC)
# In short: as §1
# [20] = system: A. calcoaceticus No. 4; assay: as above; assay type: cell-based, Acinetobacter calcoaceticus; settings: Acinetobacter calcoaceticus, NO.4, 16 h, A. calcoaceticus No. 4; 10^6 CFU/ml; read-out: Minimum Inhibitory Concentration (MIC)
# In short: as §1
# [21] = read-out: Minimum Inhibitory Concentration (MIC), *E. cloacae Nek 39, lactamase-producing strain
# [22] = GN5482, 16 h, read-out: Minimum Inhibitory Concentration (MIC), *E. coli GN5482, lactamase-producing strain, 10^6 CFU/ml
# [23] = GN10650, 16 h, read-out: Minimum Inhibitory Concentration (MIC), *K. oxytoca GN10650, lactamase-producing strain
# [24] = K. pneumoniae PCI-602, read-out: Minimum Inhibitory Concentration (MIC)
# [25] = Ps. aeruginosa AK 109, 10^6 CFU/ml
# [26] = 16 h, Ps. aeruginosa IF03445, read-out: Minimum Inhibitory Concentration (MIC)
# [27] = *E. cloacae Nek 39, lactamase-producing strain, read-out: Minimum Inhibitory Concentration (MIC)
# [28] = GN5482, 16 h, read-out: Minimum Inhibitory Concentration (MIC)
# [29] = 16 h, *K. oxytoca GN10650, lactamase-producing strain, read-out: Minimum Inhibitory Concentration (MIC)
# [30] = *S. marcescens No. 16-2, lactamase-producing strain, 10^6 CFU/ml
# [31] = S. aureus 209P NIHJ-JC1, 10^6 CFU/ml, 37° C., 16 hours
SMILES,MIC [1],MIC [2],MIC [3],"MIC [4, 21]","MIC [5, 22]",MIC [6],"MIC [7, 23]",MIC [8],"MIC [9, 24]",MIC [10],MIC [11],MIC [12],MIC [13],MIC [14],"MIC [16, 25]",MIC [17],"MIC [18, 26]",MIC [19],MIC [20],"MIC [15, 30]",other results
"CC(C)(O/N=C(\C(=O)N[C@@H]1C(=O)N2C(C(=O)O)=C(CSc3nc(-c4ccc(O)cc4)cs3)CS[C@H]12)c1csc(N)n1)C(=O)O [compound 12, disodium 7β-[2-(2-aminothiazol-4-yl)-2-(1-carboxylate-1-methylethoxyimino)acetamido]-3-[4-(4-hydroxyphenyl)thiazol-2-yl]thiomethyl-3-cephem-4-carboxylate, reference compound]",1.56 µg/mL,1.56 µg/mL,3.12 µg/mL,12.5 µg/mL,1.56 µg/mL,3.12 µg/mL,1.56 µg/mL,3.12 µg/mL,0.05 µg/mL,1.56 µg/mL,< 0.006 µg/mL,0.39 µg/mL,3.12 µg/mL,0.78 µg/mL,25 µg/mL,> 100 µg/mL,50 µg/mL,3.12 µg/mL,100 µg/mL,–,MIC [15]: 12.5 µg/mL
"CO/N=C(\C(=O)N[C@@H]1C(=O)N2C(C(=O)O)=C(CSc3nc(-c4ccc(OC)c(OC)c4)cs3)CS[C@H]12)c1csc(N)n1 [compound 13, trifluoroacetate, reference compound]",6.25 µg/mL,1.56 µg/mL,12.5 µg/mL,–,–,6.25 µg/mL,–,6.25 µg/mL,0.05 µg/mL,6.25 µg/mL,0.05 µg/mL,3.12 µg/mL,0.39 µg/mL,3.12 µg/mL,100 µg/mL,> 100 µg/mL,> 100 µg/mL,12.5 µg/mL,100 µg/mL,50 µg/mL,"MIC [4, 27]: 25 µg/mL; MIC [5, 28]: 3.12 µg/mL; MIC [7, 29]: 25 µg/mL"
"CC(C)(O/N=C(\C(=O)N[C@@H]1C(=O)N2C(C(=O)O)=C(CSc3nc(C(=O)O)c(-c4ccccc4)s3)CS[C@H]12)c1csc(N)n1)C(=O)O [compound 14, reference compound]",1.56 µg/mL,1.56 µg/mL,1.56 µg/mL,12.5 µg/mL,–,1.56 µg/mL,1.56 µg/mL,1.56 µg/mL,0.2 µg/mL,0.2 µg/mL,< 0.006 µg/mL,0.025 µg/mL,–,–,–,> 100 µg/mL,–,0.78 µg/mL,50 µg/mL,25 µg/mL,"MIC ([5]; 16 h, *E. coli GN5482, lactamase-producing strain, 10^6 CFU/ml, read-out: Minimum Inhibitory Concentration (MIC)): 3.12 µg/mL; MIC [13, 31]: 50 µg/mL; MIC ([14]; S. marcescens IAM 1184, 10^6 CFU/ml): 0.1 µg/mL; MIC [16]: 12.5 µg/mL; MIC ([18]; IF03445, 16 h, read-out: Minimum Inhibitory Concentration (MIC), Ps. aeruginosa IF03445): 12.5 µg/mL"
"CO/N=C(\C(=O)N[C@@H]1C(=O)N2C(C(=O)O)=C(CSc3nc(-c4ccccc4)c(CC(=O)O)s3)CS[C@H]12)c1csc(N)n1 [compound 15, disodium 7β-[2-(2-aminothiazol-4-yl)-2-methoxyiminoacetamido]-3-(5-carboxylatemethyl-4-phenylthiazol-2-yl)thiomethyl-3-cephem-4-carboxylate, reference compound]",0.78 µg/mL,0.39 µg/mL,0.39 µg/mL,12.5 µg/mL,–,0.78 µg/mL,–,0.78 µg/mL,0.2 µg/mL,0.39 µg/mL,< 0.006 µg/mL,0.2 µg/mL,3.12 µg/mL,0.78 µg/mL,100 µg/mL,> 100 µg/mL,100 µg/mL,6.25 µg/mL,100 µg/mL,50 µg/mL,"MIC [5, 28]: 3.12 µg/mL; MIC [7, 29]: 25 µg/mL"
"CC(C)(O/N=C(\C(=O)N[C@@H]1C(=O)N2C(C(=O)O)=C(CSc3nc(-c4ccccc4)c(CC(=O)O)s3)CS[C@H]12)c1csc(N)n1)C(=O)O [compound 16, trisodium 7β-[2-(2-aminothiazol-4-yl)-2-(1-carboxylate-1-methylethoxyimino)acetamido]-3-(5-carboxylatemethyl-4-phenylthiazol-2-yl)thio-methyl-3-cephem-4-carboxylate, reference compound]",3.12 µg/mL,6.25 µg/mL,6.25 µg/mL,–,6.25 µg/mL,6.25 µg/mL,3.12 µg/mL,3.12 µg/mL,–,1.56 µg/mL,< 0.006 µg/mL,0.2 µg/mL,–,1.56 µg/mL,50 µg/mL,> 100 µg/mL,50 µg/mL,6.25 µg/mL,> 100 µg/mL,50 µg/mL,"MIC [4, 27]: 25 µg/mL; MIC ([9]; read-out: Minimum Inhibitory Concentration (MIC), K. pneumoniae PCI-602): 1.56 µg/mL; MIC [13, 31]: 50 µg/mL"
